# Source: patent publication US20230002360A1, “Heterocycloalkyl compounds as CCR2 / CCR5 antagonists” (SHENZHEN LINGFANG BIOTECH CO.,LTD, priority 2019, published 2023)
# Experiments:
# [1] = target: T1, CCR2 (Homo sapiens, UniProt P41597); experiment: FLIPR calcium assay, CCR2 cell line; format: cell-based; conditions: HEK293 host cell, MCP-1 agonist, intracellular calcium signal; read-out: IC50 (nM) test results for FLIPR detection, CCR2
# T1 construct: expressed in transfected cells; host or cells: HEK293 (clone C7, passage P6)
# T1 sequence (P41597 whole entry, species assumed): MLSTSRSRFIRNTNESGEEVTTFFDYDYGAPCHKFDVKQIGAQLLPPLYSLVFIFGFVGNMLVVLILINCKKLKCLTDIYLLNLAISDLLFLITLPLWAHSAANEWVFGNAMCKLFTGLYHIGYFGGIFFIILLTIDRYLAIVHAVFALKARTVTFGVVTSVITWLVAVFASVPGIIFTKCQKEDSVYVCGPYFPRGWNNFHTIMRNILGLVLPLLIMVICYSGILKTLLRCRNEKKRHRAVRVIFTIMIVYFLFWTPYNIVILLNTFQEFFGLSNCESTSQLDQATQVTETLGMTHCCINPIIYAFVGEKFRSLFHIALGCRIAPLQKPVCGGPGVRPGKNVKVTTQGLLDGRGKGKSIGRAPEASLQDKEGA
# Description: (§1) The changes in intracellular calcium signal were detected by FLIPR Calcium assay, and the compound's IC50 value was used as an indicator to evaluate inhibitory effect of the compound on CCR2 and CCR5 receptors.
# (§2) 1, Cell line: Cells were seeded and incubated overnight in an incubator at 37° C. and 5% CO2.
# (§3) CCR2/CCR5 density: 1 M (20K/Well)
# (§4) 2, Reagents: Fluo-4 Direct, (Invitrogen, Cat #f10471)
# (§5) The compound was dissolved in DMSO to prepare a 10 mM solution, and the compound solution was placed in a nitrogen gas box.
# (§6) MCP-1 was serially diluted with FLIPR assay buffer starting from 0.5 μM at a dilution ratio of 1:2 and a total of 10 gradients were diluted (final 100 nM). RANTES is serially diluted with FLIPR assay buffer starting from 0.5 μM at a dilution ratio of 1:3 and a total of 10 gradients were diluted (final 100 nM). According to the compound plate-map, 20 μL of the serially diluted compound buffers were added to each well of the DRC plate respectively.
# (§7) The standard compound was diluted with DMSO 1:3 starting from 1 mM at a dilution ratio of 1:3 and a total of 11 gradients were diluted. The test compound was diluted with DMSO 1:3 starting from 2 mM at a dilution ratio of 1:3 and a total of 11 gradients were diluted.
# (§8) c) taking the cell plate from the incubator, and gently distributing 20 μL of 2× Fluo-4 Direct non-washing loading buffer to each well of the 384-well cell culture plate using a pipette, wherein each of wells in the cell plate has a final volume of 40 μL.
# (§9) d) Incubating at 37° C. and 5% CO2 for 50 minutes, and at room temperature for 10 minutes.
# (§10) e) removing the cell plate from the incubator and placing in FLIPR, and putting the composite plate and the tip box into FLIPR.
# (§11) 5) Calculating from Read 90 to the maximum allowable “maximum-minimum”, and calculating the EC80 value of each of cell lines by using FLIPR
# (§12) 6) Preparing the reference agonist compound at a concentration of 5×EC80
# (§13) 2) Transferring […] of the reference agonist compound at a concentration of 5×EC80 from the composite plate to the cell plate.
# (§14) 3) Reading the fluorescence signal.
# (§15) 4) Calculating from Read 90 to the maximum allowable “maximum-minimum”.
# (§16) h) Analyzing the data and calculating the IC50 value of the compound by using Prism.
# [2] = target: T2, CCR5 (Homo sapiens, UniProt P51681); experiment: FLIPR calcium assay, CCR5 cell line; format: cell-based; conditions: HEK293 host cell, RANTES agonist, intracellular calcium signal; read-out: IC50 (nM) test results for FLIPR detection, CCR5
# T2 construct: expressed in transfected cells; host or cells: HEK293 (clone C13, passage P4)
# T2 sequence (P51681 whole entry, species assumed): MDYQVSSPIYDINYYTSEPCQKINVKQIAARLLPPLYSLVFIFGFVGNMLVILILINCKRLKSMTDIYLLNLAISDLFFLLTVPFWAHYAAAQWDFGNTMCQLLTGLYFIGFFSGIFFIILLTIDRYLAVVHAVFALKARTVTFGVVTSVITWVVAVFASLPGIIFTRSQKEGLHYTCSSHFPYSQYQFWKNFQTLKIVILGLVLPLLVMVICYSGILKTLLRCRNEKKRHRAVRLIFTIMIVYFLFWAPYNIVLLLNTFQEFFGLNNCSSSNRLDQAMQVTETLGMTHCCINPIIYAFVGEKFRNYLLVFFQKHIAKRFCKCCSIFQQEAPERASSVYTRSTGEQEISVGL
# Description: as §1, §2, §3, §4, §5, §6, §7, §8, §9, §10, §11, §12, §13, §14, §15, §16
# [3] = target: T3, CYP2C19 (Homo sapiens, UniProt P33261); experiment: Inhibition of human liver microsomal CYP2C19 ((S)-mephenytoin probe); format: in vitro ADME; conditions: human liver microsomes, read-out: Half inhibitory concentration IC50, CYP2C19
# T3 construct: from tissue; host or cells: human liver microsomes
# T3 sequence (P33261 whole entry): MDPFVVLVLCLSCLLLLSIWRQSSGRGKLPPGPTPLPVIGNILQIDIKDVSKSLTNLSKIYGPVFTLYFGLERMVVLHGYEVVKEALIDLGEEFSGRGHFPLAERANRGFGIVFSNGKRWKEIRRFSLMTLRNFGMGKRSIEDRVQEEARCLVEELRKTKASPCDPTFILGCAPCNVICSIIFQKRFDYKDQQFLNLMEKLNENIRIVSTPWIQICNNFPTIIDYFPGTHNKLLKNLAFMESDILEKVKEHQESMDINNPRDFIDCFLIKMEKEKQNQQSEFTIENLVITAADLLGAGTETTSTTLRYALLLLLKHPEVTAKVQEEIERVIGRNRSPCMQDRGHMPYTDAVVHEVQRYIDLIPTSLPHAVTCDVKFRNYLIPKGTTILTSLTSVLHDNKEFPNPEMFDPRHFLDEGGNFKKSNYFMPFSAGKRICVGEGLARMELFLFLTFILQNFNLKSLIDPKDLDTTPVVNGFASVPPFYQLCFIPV
# Description: (§17) Experimental Example 2. Inhibition of human liver microsomal cytochrome P450 isoenzymes (CYP1A2, CYP2C9, CYP2C19, CYP2D6 and CYP3A4) activity
# (§18) A total of 5 specific probe substrates of 5 CYP isozymes, which are phenacetin (PHenacetin, CYP1A2), diclofenac (Diclofenac, CYP2C9), (S)-mephenytoin ((S)-MepHenytoin, CYP2C19), dextromethorpHan (CYP2D6), and midazolam (Midazolam, CYP3A4), were incubated with human liver microsomes respectively. Then, reduced nicotinamide adenine dinucleotide phosphate (NADPH) was added to initiate reaction. After the reaction, the sample is processed and quantitatively detected for the concentrations of the five metabolites produced from the specific substrate, acetaminophen (AcetaminopHen), 4′-hydroxydiclofenac (4′-Hydroxydiclofenac), 4′-Hydroxymephenytoin (4′-HydroxymepHenytoin), Dextrorphan (DextrorpHan), and 1′-Hydroxymidazolam (1′-Hydroxymidazolam) by liquid chromatography-quadrupole mass spectrometry (LC-MS/MS) method to calculate the corresponding half inhibitory concentration (IC50).
# [4] = target: T4, CYP1A2 (Homo sapiens, UniProt P05177); experiment: Inhibition of human liver microsomal CYP1A2 (phenacetin probe); format: in vitro ADME; conditions: human liver microsomes, read-out: Half inhibitory concentration IC50, CYP1A2
# T4 construct: from tissue; host or cells: human liver microsomes
# T4 sequence (P05177 1-516): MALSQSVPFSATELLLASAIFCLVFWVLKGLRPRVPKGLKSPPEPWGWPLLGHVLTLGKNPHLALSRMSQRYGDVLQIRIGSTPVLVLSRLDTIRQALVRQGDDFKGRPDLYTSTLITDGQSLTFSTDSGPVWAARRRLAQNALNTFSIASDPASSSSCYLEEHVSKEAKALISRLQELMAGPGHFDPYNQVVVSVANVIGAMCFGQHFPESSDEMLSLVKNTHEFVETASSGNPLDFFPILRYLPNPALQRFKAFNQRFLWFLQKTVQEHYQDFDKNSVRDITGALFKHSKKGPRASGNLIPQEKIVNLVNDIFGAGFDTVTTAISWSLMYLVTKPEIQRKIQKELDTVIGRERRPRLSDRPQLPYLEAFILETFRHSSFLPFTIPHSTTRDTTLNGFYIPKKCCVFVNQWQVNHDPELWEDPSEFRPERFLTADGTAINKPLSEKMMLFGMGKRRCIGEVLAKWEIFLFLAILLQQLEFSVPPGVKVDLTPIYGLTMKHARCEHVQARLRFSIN
# Description: as §17, §18
# [5] = target: T5, CYP3A4 (Homo sapiens, UniProt P08684); experiment: Inhibition of human liver microsomal CYP3A4 (midazolam probe); format: in vitro ADME; conditions: for inhibitory effect on CYP3A4 (in words): conclusion from Table 2; for IC50: human liver microsomes, midazolam, read-out: Half inhibitory concentration IC50, CYP3A4-M
# T5 construct: from tissue; host or cells: human liver microsomes
# T5 sequence (P08684 whole entry): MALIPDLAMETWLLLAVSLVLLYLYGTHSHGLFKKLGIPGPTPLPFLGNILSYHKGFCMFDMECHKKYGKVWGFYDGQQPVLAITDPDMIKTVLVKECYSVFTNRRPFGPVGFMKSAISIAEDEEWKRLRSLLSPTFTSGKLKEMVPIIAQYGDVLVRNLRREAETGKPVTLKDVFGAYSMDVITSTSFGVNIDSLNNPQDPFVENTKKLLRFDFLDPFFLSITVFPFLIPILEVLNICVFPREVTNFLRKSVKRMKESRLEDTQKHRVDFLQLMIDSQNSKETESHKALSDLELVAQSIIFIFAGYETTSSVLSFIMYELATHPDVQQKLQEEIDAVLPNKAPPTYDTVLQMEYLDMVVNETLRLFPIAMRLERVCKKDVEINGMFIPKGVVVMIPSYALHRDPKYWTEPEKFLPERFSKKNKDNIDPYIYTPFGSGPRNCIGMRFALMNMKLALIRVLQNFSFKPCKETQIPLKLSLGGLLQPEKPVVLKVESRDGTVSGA
# Description: Inhibition of human liver microsomal cytochrome P450 isoenzymes (CYP1A2, CYP2C9, CYP2C19, CYP2D6 and CYP3A4) activity
# A total of 5 specific probe substrates of 5 CYP isozymes, which are phenacetin (PHenacetin, CYP1A2), diclofenac (Diclofenac, CYP2C9), (S)-mephenytoin ((S)-MepHenytoin, CYP2C19), dextromethorpHan (CYP2D6), and midazolam (Midazolam, CYP3A4), were incubated with human liver microsomes respectively. Then, reduced nicotinamide adenine dinucleotide phosphate (NADPH) was added to initiate reaction.
# [6] = target: T6, CYP2C9 (Homo sapiens, UniProt P11712); experiment: Inhibition of human liver microsomal CYP2C9 (diclofenac probe); format: in vitro ADME; conditions: human liver microsomes, read-out: Half inhibitory concentration IC50, CYP2C9
# T6 construct: from tissue; host or cells: human liver microsomes
# T6 sequence (P11712 whole entry): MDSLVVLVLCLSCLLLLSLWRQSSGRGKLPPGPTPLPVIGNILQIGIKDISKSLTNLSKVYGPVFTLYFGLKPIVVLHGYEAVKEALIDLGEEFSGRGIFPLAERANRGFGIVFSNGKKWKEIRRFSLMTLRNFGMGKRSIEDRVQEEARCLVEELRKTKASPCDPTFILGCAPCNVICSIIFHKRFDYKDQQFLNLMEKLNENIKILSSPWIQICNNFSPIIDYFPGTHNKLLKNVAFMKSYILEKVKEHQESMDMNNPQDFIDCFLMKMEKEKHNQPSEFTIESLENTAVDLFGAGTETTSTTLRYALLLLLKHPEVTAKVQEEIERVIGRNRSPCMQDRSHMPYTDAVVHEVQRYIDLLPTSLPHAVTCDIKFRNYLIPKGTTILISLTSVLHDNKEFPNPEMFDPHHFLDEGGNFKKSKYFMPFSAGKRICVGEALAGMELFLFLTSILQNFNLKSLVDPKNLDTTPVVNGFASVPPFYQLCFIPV
# Description: as §17, §18
# [7] = target: T7, CYP2D6 (Homo sapiens, UniProt P10635); experiment: Inhibition of human liver microsomal CYP2D6 (dextromethorphan probe); format: in vitro ADME; conditions: human liver microsomes, read-out: Half inhibitory concentration IC50, CYP2D6
# T7 construct: from tissue; host or cells: human liver microsomes
# T7 sequence (P10635 whole entry): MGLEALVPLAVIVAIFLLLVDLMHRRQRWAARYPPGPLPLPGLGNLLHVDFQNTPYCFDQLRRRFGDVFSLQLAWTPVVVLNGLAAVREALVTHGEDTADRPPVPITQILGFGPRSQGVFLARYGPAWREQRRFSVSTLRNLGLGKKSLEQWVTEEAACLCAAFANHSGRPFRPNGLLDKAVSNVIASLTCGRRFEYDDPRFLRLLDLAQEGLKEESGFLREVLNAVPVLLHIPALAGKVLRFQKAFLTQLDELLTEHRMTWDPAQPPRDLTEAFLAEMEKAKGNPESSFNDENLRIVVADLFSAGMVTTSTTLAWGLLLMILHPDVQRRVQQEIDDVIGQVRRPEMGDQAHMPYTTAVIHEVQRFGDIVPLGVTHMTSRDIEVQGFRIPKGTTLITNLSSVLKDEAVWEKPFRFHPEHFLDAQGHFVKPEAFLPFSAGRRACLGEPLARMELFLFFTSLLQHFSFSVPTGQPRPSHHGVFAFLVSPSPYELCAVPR
# Description: as §17, §18
# [8] = tested on: human liver microsomal cytochrome P450 isoenzymes; experiment: Inhibition of human liver microsomal cytochrome P450 isoenzymes, overall conclusion; format: in vitro ADME; conditions: conclusion from Table 2
# Description: as §17, §18
SMILES,IC50 [1],IC50 [2],also measured
CCCCOCCOc1ccc(-c2ccc3c(c2)C=C(C(=O)Nc2ccc([S@+]([O-])Cc4c(C)ncn4CC)cc2)CCN3CC2CCCOC2)cc1 (some centres unmarked) [WX003],37 nM,8.27 nM,–
CCCCOCCOc1ccc(-c2ccc3c(c2)/C=C(/C(=O)Nc2ccc([S@+]([O-])Cc4c(C)ncn4CC)cc2)CCCN3CC2CCCCO2)cc1 (some centres unmarked) [WX008],3.4 nM,6.04 nM,–
CCCCOCCOc1ccc(-c2ccc3c(c2)C=C(C(=O)Nc2ccc([S@+]([O-])Cc4c(C)ncn4CC)cc2)CCN3CC2CCN(C)CC2)cc1 [WX018],17.9 nM,3.35 nM,–
CCCCOCCOc1ccc(-c2ccc3c(c2)/C=C(/C(=O)Nc2ccc([S@+]([O-])Cc4c(C)ncn4CC)cc2)CCCN3CC2COC2)cc1 [WX004],3.04 nM,6.3 nM,–
"CCCCOCCOc1ccc(-c2ccc3c(c2)/C=C(/C(=O)Nc2ccc([S@@+]([O-])Cc4cncn4CCC)cc2)CCCN3CC2CC2)cc1 [Reference A, reference compound]",–,–,IC50 [3]: > 50000 nM; IC50 [4]: > 50000 nM; inhibitory effect on CYP3A4 (in words) [5]: strong inhibitory effect; IC50 [5]: 786 nM; IC50 [6]: > 50000 nM; IC50 [7]: > 50000 nM
CCCCOCCOc1ccc(-c2ccc3c(c2)/C=C(/C(=O)Nc2ccc([S@+]([O-])Cc4c(C)ncn4CC)cc2)CCCCN3CC2CCCOC2)cc1 (some centres unmarked) [WX007],6.76 nM,6.18 nM,–
CCCCOCCOc1ccc(-c2ccc3c(c2)/C=C(/C(=O)Nc2ccc([S@+]([O-])Cc4c(C)ncn4CC)cc2)CCCN3CC2CCOC2)cc1 (some centres unmarked) [WX013],3.11 nM,5.45 nM,–
CCCCOCCOc1ccc(-c2ccc3c(c2)/C=C(/C(=O)Nc2ccc([S@+]([O-])Cc4c(C)ncn4CC)cc2)CCCCN3CC2COC2)cc1 [WX005],9.2 nM,4.2 nM,–
CCCCOCCOc1ccc(-c2ccc3c(c2)/C=C(/C(=O)Nc2ccc([S@+]([O-])Cc4c(C)ncn4CC)cc2)CCCN3CC2CCOC2)cc1 (some centres unmarked) [WX014],3.78 nM,6.28 nM,–
CCCCOCCOc1ccc(-c2ccc3c(c2)/C=C(/C(=O)Nc2ccc([S@+]([O-])Cc4c(C)ncn4CC)cc2)CCCN3CC2CCN(C)CC2)cc1 [WX009],4.38 nM,6.78 nM,–
"CCCCOCCOc1ccc(-c2ccc3c(c2)/C=C(/C(=O)Nc2ccc([S@@+]([O-])Cc4cncn4CCC)cc2)CCCN3CC(C)C)cc1 [(CVC), Cenicriviroc, reference compound]",–,–,IC50 [3]: > 50000 nM; IC50 [4]: > 50000 nM; inhibitory effect on CYP3A4 (in words) [5]: strong inhibitory effect; IC50 [5]: 750 nM; IC50 [6]: > 50000 nM; IC50 [7]: > 50000 nM
CCCCOCCOc1ccc(-c2ccc3c(c2)/C=C(/C(=O)Nc2ccc([S@+]([O-])Cc4c(C)ncn4CC)cc2)CCCCN3CC2CCCOC2)cc1 (some centres unmarked) [WX006],7.51 nM,8.44 nM,–

# More lines, in order of falling IC50 [1], values ahead:
IC50 [1],IC50 [2],SMILES,also measured
3 nM,–,CCCCOCCOc1ccc(-c2ccc3c(c2)/C=C(/C(=O)Nc2ccc([S@@+]([O-])Cc4c(C)ncn4CC)cc2)CCCN3CC2CCOCC2)cc1 [WX002],risk of inhibiting the activity of human liver microsomal cytochrome P450 isoenzymes (in words) [8]: no risk of inhibiting the activity; IC50 [3]: > 50000 nM; IC50 [4]: > 50000 nM; IC50 [5]: 13300 nM; IC50 [6]: 10900 nM; IC50 [7]: > 50000 nM
2.47 nM,–,CCCCOCCOc1ccc(-c2ccc3c(c2)/C=C(/C(=O)Nc2ccc([S@@+]([O-])Cc4c(C)ncn4CC)cc2)CCCN3CC2CCOCC2)cc1 [WX017],–
1.33 nM,4.25 nM,CCCCOCCOc1ccc(-c2ccc3c(c2)/C=C(/C(=O)Nc2ccc([S@+]([O-])Cc4c(C)ncn4CC)cc2)CCCN3CC2CCOCC2)cc1 [WX001],IC50 [3]: 1420 nM; IC50 [4]: > 50000 nM; inhibitory effect on CYP3A4 (in words) [5]: no inhibitory effect; IC50 [5]: > 50000 nM; IC50 [6]: > 50000 nM; IC50 [7]: > 50000 nM
1.19 nM,3.15 nM,CCCCOCCOc1ccc(-c2ccc3c(c2)/C=C(/C(=O)Nc2ccc([S@+]([O-])Cc4c(C)ncn4CC)cc2)CCCN3C[C@H]2CCCO2)cc1 [WX028],–
0.69 nM,1.37 nM,CCCCOCCOc1ccc(-c2ccc3c(c2)/C=C(/C(=O)Nc2ccc([S@+]([O-])Cc4c(C)ncn4CC)cc2)CCCN3CC2COCCO2)cc1 (some centres unmarked) [WX026],–
0.69 nM,1.38 nM,CCCCOCCOc1ccc(-c2ccc3c(c2)/C=C(/C(=O)Nc2ccc([S@+]([O-])Cc4c(C)ncn4CC)cc2)CCCN3CC2COCCO2)cc1 (some centres unmarked) [WX025],–
0.41 nM,1.44 nM,CCCCOCCOc1ccc(-c2ccc3c(c2)/C=C(/C(=O)Nc2ccc([S@+]([O-])Cc4c(C)ncn4CC)cc2)CCCN3CC2CCCO2)cc1 (some centres unmarked) [WX027],–
